Earlier results on one sequence are cited in US20230399457A1, “Bioactive Synthetic Copolymer, Bioactive Macromolecule and Related Methods Thereof” (Agency for Science, Technology and Research, priority 2020, published 2023).

The subject of this series is rats.

With “AGQWHRVSVRWGC [A5G81, laminin-derived peptide]”, the wound healing entry is on record as “facilitate wound healing in rats”.
